Assay: in vitro
Conditions: human, hela cells, % viability

Question: Which viability at 28.5 h, 10 µM does the source give for `CN(C)c1ccc(-c2cc(NCCc3ccncc3)ncn2)cc1` [CBK090849] here?
Answer: 94.2%

Question: Which viability at 28.5 h, 10 µM does the source give for `Cc1nn(CC(C)C(=O)NCCN2CCC(C)CC2)c(C)c1Cl` (stereo not drawn) [CBK281570] here?
Answer: 94.2%

Question: With `COc1ccc(C)cc1S(=O)(=O)n1cc2c3c(cccc31)CN(C(=O)CN(C)C)C2` [CBK155549T] as the molecule, how does the viability at 28.5 h, 10 µM read?
Answer: 93.3%

Question: With `Cc1cc(C)n(C(C)CC(=O)NCC(C)N2CCC(C)CC2)n1` (stereo not drawn) [CBK282104] as the molecule, how does the viability at 28.5 h, 10 µM read?
Answer: 108%

Question: With `Brc1ccc(CN2CCN3CCCC3C2C2CCCCC2)o1` (stereo not drawn) [CBK021456] as the molecule, how does the viability at 28.5 h, 10 µM read?
Answer: 82.6%

Question: With `COc1ccc(-c2cnc(N)nc2C2CCCN(C(=O)CCCc3ccccc3)C2)cc1` (stereo not drawn) [CBK286091] as the molecule, how does the viability at 28.5 h, 10 µM read?
Answer: 94.4%

Question: Which viability at 28.5 h, 10 µM does the source give for `COc1ccc(-n2nc3cc(C)c(NC(=S)NC(=O)c4oc5ccccc5c4C)cc3n2)cc1` [CBK264188] here?
Answer: 103%

Question: For `Cc1cnccc1N1CCN(C(=O)CCCOc2ccccc2)CC1` [CBK304677], which viability at 28.5 h, 10 µM is on record?
Answer: 94.8%

Question: Which viability at 28.5 h, 10 µM does the source give for `C=CCNC(=O)N1CC[C@H]2CC(=O)N(Cc3cccnc3)CC[C@H]2C1` [CBK288791] here?
Answer: 113%

Question: With `Cc1cc(/C=C2\NC(=O)NC2=O)c(C)n1-c1ccc(OCc2ccccc2F)cc1` [CBK264842] as the molecule, how does the viability at 28.5 h, 10 µM read?
Answer: 88.3%

Question: Which viability at 28.5 h, 10 µM does the source give for `CCCCOc1ccc(C(=O)N(C)c2cnn(C)c2)c(O)c1` [CBK306167] here?
Answer: 89.5%

Question: Which viability at 28.5 h, 10 µM does the source give for `CN(C(=O)C1CCN(Cc2cccc(C(F)(F)F)c2)CC1)C(c1ccc(F)cc1)c1ccccn1` (stereo not drawn) [CBK148409] here?
Answer: 95.7%

Question: Which viability at 28.5 h, 10 µM does the source give for `COc1ccc(C(=O)Nc2ccccc2C(=O)NCCCC(=O)O)cc1` [CBK287024] here?
Answer: 111%

Question: With `Cc1ccc(SCCNS(=O)(=O)c2cccc([N+](=O)[O-])c2)cc1` [CBK267508] as the molecule, how does the viability at 28.5 h, 10 µM read?
Answer: 81.4%

Question: With `Nc1ccc(-c2cn3ccnc3c(NCc3cccs3)n2)cc1` [CBK066564] as the molecule, how does the viability at 28.5 h, 10 µM read?
Answer: 95.5%

Question: For `Cc1cc(C(=O)N2CCCCCC2c2c(Cl)cnn2C)on1` (stereo not drawn) [CBK284916], which viability at 28.5 h, 10 µM is on record?
Answer: 99.3%

Question: Which viability at 28.5 h, 10 µM does the source give for `O=C(COc1nc2cc3c(nc2o1)CCC3)c1ccccc1` [CBK269407] here?
Answer: 75.5%

Question: Which viability at 28.5 h, 10 µM does the source give for `O=[N+]([O-])c1ccc2c(c1)C=C1CCCCC1(NCc1ccccc1)O2` (stereo not drawn) [CBK262716] here?
Answer: 98.8%

Question: For `Cc1nnc(SCC(=O)NNC(=O)c2cccs2)[nH]1` [CBK266879], which viability at 28.5 h, 10 µM is on record?
Answer: 93.7%

Question: Which viability at 28.5 h, 10 µM does the source give for `c1coc(-c2nc3cnccn3c2NC2CCCCC2)c1` [CBK283498] here?
Answer: 93.6%

Question: Which viability at 28.5 h, 10 µM does the source give for `Nc1ccc(Sc2nc3ccccc3nc2C(F)(F)F)cc1` [CBK089560] here?
Answer: 100%

Question: Which viability at 28.5 h, 10 µM does the source give for `Cc1ccc(OCC(=O)N2CCN(S(=O)(=O)c3ccc4ccccc4c3)CC2)cc1` [CBK264200] here?
Answer: 115%

Question: With `C/C(=N\NC(=O)c1nonc1N)c1ccc(Cl)cc1` [CBK025664] as the molecule, how does the viability at 28.5 h, 10 µM read?
Answer: 107%

Question: With `COc1ncccc1C(=O)N1CCN(CCc2ccccc2)CC1` [CBK200226] as the molecule, how does the viability at 28.5 h, 10 µM read?
Answer: 88.4%

Question: For `Cc1cc(O)ccc1Nc1cc(-c2ccc3c(c2)OCO3)ncn1` [CBK091053], which viability at 28.5 h, 10 µM is on record?
Answer: 92.6%

Question: For `COc1cc2c(cc1OC)C(C)N(S(=O)(=O)c1cn(C)cn1)CC2` (stereo not drawn) [CBK057314], which viability at 28.5 h, 10 µM is on record?
Answer: 112%

Question: For `Nn1cnn2c(SCCSC3CCCCC3)nnc12` [CBK263192], which viability at 28.5 h, 10 µM is on record?
Answer: 108%

Question: For `COC(=O)CCC(=O)Nc1cccc([N+](=O)[O-])c1` [CBK261345], which viability at 28.5 h, 10 µM is on record?
Answer: 95.4%

Question: Which viability at 28.5 h, 10 µM does the source give for `Cn1cnc2cc(C(=O)N3CC(C(=O)N4CCN(c5ccccc5)CC4)C3)ccc21` [CBK285664] here?
Answer: 82.5%

Question: With `Cc1ccc(C2(O)CCN(Cc3cn(C)nc3C)CC2)cc1` [CBK282753] as the molecule, how does the viability at 28.5 h, 10 µM read?
Answer: 107%

Question: For `CC1(C)C[C@H](NC2CCOCC2)[C@@]2(CCC(=O)N3CCOCC3)CC[C@](C)(O)C[C@@H]12` [CBK289041], which viability at 28.5 h, 10 µM is on record?
Answer: 91.6%

Question: With `CCOc1ccc2nc(SCCN3CCOCC3)sc2c1` [CBK005888] as the molecule, how does the viability at 28.5 h, 10 µM read?
Answer: 89.6%

Question: With `O=C(Nc1ccc([C@@H](O)[C@H]2COCC(=O)N2Cc2ccccn2)cc1)c1cccs1` [CBK289700] as the molecule, how does the viability at 28.5 h, 10 µM read?
Answer: 109%

Question: For `CC(NC(=O)c1cnc(-c2cccc(C(F)(F)F)c2)c(-c2ccncc2)c1)c1ccc(F)cc1` (stereo not drawn) [CBK037556], which viability at 28.5 h, 10 µM is on record?
Answer: 99.7%

Question: Which viability at 28.5 h, 10 µM does the source give for `CCN1CCN(C(=O)CN(C)S(=O)(=O)c2ccc(OC)c(Cl)c2)CC1` [CBK268091] here?
Answer: 93.2%

Question: For `OCCNc1nc(N2CCN(Cc3ccccc3)CC2)nc2ccccc12` [CBK266667C], which viability at 28.5 h, 10 µM is on record?
Answer: 92.5%

Question: Which viability at 28.5 h, 10 µM does the source give for `OCc1cccc(-c2cncc(Nc3ccccc3)n2)c1` [CBK065576] here?
Answer: 97.4%

Question: For `CC(C)S(=O)(=O)CC(=O)Nc1ccc(C(=O)O)cc1` [CBK020001], which viability at 28.5 h, 10 µM is on record?
Answer: 96.6%

Question: Which viability at 28.5 h, 10 µM does the source give for `CC(=O)Nc1cccc(-c2nccnc2NS(=O)(=O)c2cccs2)c1` [CBK050760] here?
Answer: 92.7%

Question: For `Cc1cccc(-n2ncc3c(=O)n(CC(=O)NC4CCCCC4)cnc32)c1C` [CBK287694], which viability at 28.5 h, 10 µM is on record?
Answer: 104%

Question: For `Cc1nn2c(=O)[nH]ncc2c1-c1ccccc1C(=O)N(C(C)C)C(C)C` [CBK307043], which viability at 28.5 h, 10 µM is on record?
Answer: 109%

Question: For `COc1cc(/C=c2\sc3nc(-c4ccccc4OC(C)=O)nn3c2=O)ccc1OCc1ccccc1` [CBK264575], which viability at 28.5 h, 10 µM is on record?
Answer: 99.2%

Question: For `COc1ccc([C@]23CC[C@H](NC(=O)Nc4ccc(F)cc4F)C[C@H]2N(C)CC3)cc1OC` [CBK066917T], which viability at 28.5 h, 10 µM is on record?
Answer: 90.6%

Question: For `CN1CCN(c2ccccc2NC(=O)c2ccc3ccccc3c2)CC1` [CBK268486], which viability at 28.5 h, 10 µM is on record?
Answer: 96.1%

Question: Which viability at 28.5 h, 10 µM does the source give for `O=C(CSc1n[nH]c(-c2ccccc2Cl)n1)Nc1ccccc1F` [CBK265901] here?
Answer: 82.9%

Question: For `O=C(NC1CCN(CC2(c3ccccc3)CC2)CC1)C1CCC1` [CBK285322], which viability at 28.5 h, 10 µM is on record?
Answer: 98.9%

Question: For `CCNc1nnc(SCCC(=O)N2CCN(c3ccc(F)cc3)CC2)s1` [CBK305058], which viability at 28.5 h, 10 µM is on record?
Answer: 100%

Question: Which viability at 28.5 h, 10 µM does the source give for `Cc1ccccc1NS(=O)(=O)c1ccc(OCC(=O)N2CCN(C)CC2)cc1` [CBK267948] here?
Answer: 88.4%

Question: Which viability at 28.5 h, 10 µM does the source give for `Cc1ccc(CN(Cc2[nH]cnc2C)C2CC(C)(C)NC(C)(C)C2)o1` [CBK283176] here?
Answer: 96.7%

Question: For `CCCCN(C)c1c(C)nc2ccc(C(=O)N(C)CCCN(C)C)cn12` [CBK146006], which viability at 28.5 h, 10 µM is on record?
Answer: 103%

Question: For `Oc1c2c(nn1Cc1ccccc1)CCCC2` [CBK089898], which viability at 28.5 h, 10 µM is on record?
Answer: 87.4%

Question: Which viability at 28.5 h, 10 µM does the source give for `O=C(CSc1nnc(Cc2cccc3ccccc23)n1-c1ccccc1)NC1CC1` [CBK267382] here?
Answer: 86.3%

Question: For `Cn1c(=O)c2[nH]c(N3CCCNCC3)nc2n(C)c1=O` [CBK270030], which viability at 28.5 h, 10 µM is on record?
Answer: 97%

Question: Which viability at 28.5 h, 10 µM does the source give for `CC(=O)c1ccc(C(=O)Nc2nc3c(s2)COc2ccccc2-3)cc1` [CBK287363] here?
Answer: 81.9%

Question: With `COc1cc(/C=N/n2cnnc2)ccc1OCCOc1ccc(C(C)(C)C)cc1` [CBK263762] as the molecule, how does the viability at 28.5 h, 10 µM read?
Answer: 88.8%

Question: With `O=C(N[C@H]1CCN2C(=O)N(c3cccc4nsnc34)C(=O)[C@@H]2C1)c1ccnc(Cl)c1` [CBK289545] as the molecule, how does the viability at 28.5 h, 10 µM read?
Answer: 91.2%

Question: For `O=C(CC1CCCCC1)N1CCC2(CCCNC2)C1` (stereo not drawn) [CBK137154C], which viability at 28.5 h, 10 µM is on record?
Answer: 91.5%

Question: With `c1nc(Sc2nccs2)cc(N2CCCC2)n1` [CBK093748] as the molecule, how does the viability at 28.5 h, 10 µM read?
Answer: 100%

Question: For `CC1(CNC(=O)c2ccccc2Cn2cccn2)COC1` [CBK281750], which viability at 28.5 h, 10 µM is on record?
Answer: 89.4%

Question: With `O=C(CN1CCN(C(c2ccccc2)c2ccccc2)CC1)Nc1c2c(nc3ccccc13)CCC2` [CBK278299G] as the molecule, how does the viability at 28.5 h, 10 µM read?
Answer: 92.7%

Question: With `c1cnn(CC2CCCN2c2ncnc3sc4c(c23)CCNC4)c1` (stereo not drawn) [CBK307490] as the molecule, how does the viability at 28.5 h, 10 µM read?
Answer: 85.9%

Question: With `Cc1ccc(O)c(NC(=O)c2nc3nc(C)cc(C(F)F)n3n2)c1` [CBK266186] as the molecule, how does the viability at 28.5 h, 10 µM read?
Answer: 99.6%

Same assay, conditions: human, hela cells, % viability, bulk resorufin, single well

Question: Which viability at 28.5 h, 10 µM does the source give for `Cc1cc(Br)ccc1N1C(=O)NC(=O)/C(=C\c2ccc(-c3ccc(S(N)(=O)=O)cc3)o2)C1=O` [CBK263413] here?
Answer: 97.4%
